According to the supplement of paper PMC5412046:
Where a name gives a salt, the structure may show the parent alone.

Key:
SB.mhdgc-1 [1] = test: area under the dose-response curve of % viability (trapezoidal, 11 doses) (% viability x log10 concentration); higher = less cytotoxic; conditions: SB.mhdgc-1 (hereditary c.1380delA CDH1 gastric cancer)
How it was run: (§1)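 Each entry is viability relative to DMSO, given either at the highest concentration tested or as a trapezoidal area under the curve. Gastric cancer cells from hereditary or sporadic patients (500 cells in 5 μL medium per 1536 well) received compound in DMSO at 11 threefold-diluted concentrations, 23 nL by pintool. Luminescence from CellTiter-Glo was read after 48 h.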

SB.msgc-1 [2] = test: as above; conditions: SB.msgc-1 (sporadic gastric cancer)
How it was run: as §1

SB.mhdgc-1 [3] = test: viability at highest tested concentration (MAXR) relative to DMSO; higher = less cytotoxic; conditions: SB.mhdgc-1 (hereditary c.1380delA CDH1 gastric cancer)
How it was run: as §1

SB.msgc-1 [4] = test: as above; conditions: SB.msgc-1 (sporadic gastric cancer)
How it was run: as §1

Compound | area under the dose-response curve (SB.mhdgc-1 [1]) | area under the dose-response curve (SB.msgc-1 [2]) | viability (SB.mhdgc-1 [3]) [%] | viability (SB.msgc-1 [4]) [%]
C=C[C@H]1CN2CCC1C[C@H]2[C@H](O)c1ccnc2ccccc12 (stereo not given in full) [Cinchonidine] (top concentration 46.0829 µM) | 470 | 457 | 7.6 | 30.9
O=C(O)c1ccccc1C(=O)Nc1ccc(-c2ccccc2)cc1 [Kartogenin] (top concentration 46.0829 µM) | 567 | 589 | 114 | 115
C[N+](C)(C)CC(=O)O.[Cl-] [Betaine] (top concentration 46.0829 µM) | 426 | 507 | 46.7 | 74
COc1c(C)cnc(Cn2cnc3c(Cl)nc(N)nc32)c1C [CNF-2024] (top concentration 46.0829 µM) | 375 | 353 | 61.7 | 39.2
NCCCC(O)(P(=O)(O)O)P(=O)(O)O.O.O.O.[Na+] [Alendronate] (top concentration 46.0829 µM) | 500 | 576 | 45.3 | 120
CC(NCc1ccc2c(c1)[nH]/c(=N\C(=O)c1ccc(-c3cn[nH]c3)s1)n2CC(C)(C)O)C(C)(C)C (stereo not given) (top concentration 46.0829 µM) | 312 | 421 | 1.16 | 28.3
CN1[C@@H]2CC[C@H]1CC(OC(=O)c1c[nH]c3ccccc13)C2 (stereo not given in full) [Tropisetron] (top concentration 46.0829 µM) | 559 | 536 | 75.4 | 90.5
CC1=CC=CC=C1N2\C(=N/C3=C(C(=CC=C3)C)C2=O)C[N]4C=NC5=C4N=CN=C5N (top concentration 46.0829 µM) | 360 | 426 | 27.7 | 70.7
O=C(/C=C/c1ccc(CN(CCO)CCc2c[nH]c3ccccc23)cc1)NO [Dacinostat] (top concentration 46.0829 µM) | 357 | 282 | 4.22 | 7.9
O=C(c1ccc(OCCN2CCCCC2)cc1)c1c(-c2ccc(O)cc2)sc2cc(O)ccc12 [Raloxifene hydrochloride] (top concentration 46.0829 µM) | 350 | 481 | 5.75 | 62.9
CN(c1nccc(=O)[nH]1)C1CCN(c2nc3ccccc3n2Cc2ccc(F)cc2)CC1 [Mizolastine] (top concentration 46.0829 µM) | 519 | 467 | 64.6 | 31.2
CC(C)Oc1cc(Nc2nc(N[C@@H](C)c3ccc(F)cn3)ncc2Cl)n[nH]1 [AZ-23] (top concentration 46.0829 µM) | 473 | 499 | 40.2 | 32
C\C1=C\C(=O)C2=C(C=CC=C2)C1=O [Menadione] (top concentration 46.0829 µM) | 465 | 511 | 1.13 | 48.1
Cc1ccc(C(=O)c2cc(O)c(O)c([N+](=O)[O-])c2)cc1 [Tolcapone] (top concentration 46.0829 µM) | 523 | 459 | 40.4 | 25.3
N#CC(c1ccnc(NCCc2cccnc2)n1)c1nc2ccccc2s1 (stereo not given) [JNK Inhibitor V] (top concentration 46.0829 µM) | 478 | 466 | 47.8 | 38.6
CN\1C(=O)/C(=C(\N=C1N2CCCC[S+]2([O-])=O)C(=O)NCC3=CC=C(F)C=C3)O (top concentration 46.0829 µM) | 620 | 544 | 130 | 99.9
Cc1c(NC(=O)OC[C@@H]2COCCN2)cn2ncnc(Nc3ccc4c(cnn4Cc4cccc(F)c4)c3)c12 [AC-480] (top concentration 46.0829 µM) | 279 | 279 | 21.2 | 18.6
C/C=C/C[C@@H](C)C(=O)[C@H]1C(=O)N[C@@H](C(C)C)C(=O)N(C)CC(=O)N(C)[C@@H](CC(C)C)C(=O)N[C@@H](C(C)C)C(=O)N(C)[C@@H](CC(C)C)C(=O)N[C@@H](C)C(=O)N[C@H](C)C(=O)N(C)[C@@H](CC(C)C)C(=O)N(C)[C@@H](CC(C)C)C(=O)N(C)[C@@H](C(C)C)C(=O)N1C [Valspodar] (top concentration 46.0829 µM) | 393 | 475 | 37.4 | 35.1
OCCC#Cc1nc(-c2ccc(F)cc2)c(-c2ccncc2)n1CCCc1ccccc1 (top concentration 46.0829 µM) | 501 | 457 | 38.9 | 51.1
CCOC(=O)[C@@H](N)Cc1ccc(-c2cc(O[C@H](c3ccc(Cl)cc3-n3ccc(C)n3)C(F)(F)F)nc(N)n2)cc1.O=C(O)CNC(=O)c1ccccc1 [Telotristat etiprate] (top concentration 46.0829 µM) | 440 | 532 | 2.69 | 51.3
CNC(=O)c1ccc(N2C(=S)N(c3ccc(C#N)c(C(F)(F)F)c3)C(=O)C23CCC3)cc1F [RD-162] (top concentration 46.0829 µM) | 493 | 269 | 3.68 | 1.83
CC(CCc1ccc(O)cc1)NCCc1ccc(O)c(O)c1 (stereo not given) [Dobutamine hydrochloride] (top concentration 46.0829 µM) | 453 | 538 | 49.9 | 87.6
C[C@H](NCc1ccc2c(c1)nc(NC(=O)c1ccc(-c3cn[nH]c3)s1)n2CCc1ccccc1)C(C)(C)C (top concentration 46.0829 µM) | 350 | 400 | 2.84 | 1.8

Compound | area under the dose-response curve (SB.mhdgc-1 [1]) | area under the dose-response curve (SB.msgc-1 [2]) | viability (SB.mhdgc-1 [3]) [%] | viability (SB.msgc-1 [4]) [%]
COC(=O)C1=C(C)NC(C)=C(C(=O)OCCN2CCN(C(c3ccccc3)c3ccccc3)CC2)C1c1cccc([N+](=O)[O-])c1.Cl.Cl (stereo not given) [Manidipine] (top concentration 46.0829 µM) | 588 | 484 | 115 | 91.9
N[S+](=O)([O-])OC[C@@H]1C[C@@H](n2ccc3c(N[C@H]4CCc5ccccc54)ncnc32)C[C@@H]1O [MLN-4924] (top concentration 46.0829 µM) | 536 | 400 | 69.4 | 37.5
O=C(OCC#CCSc1nnc(-c2cccc3ccccc23)o1)c1cc2ccccc2s1 (top concentration 46.0829 µM) | 584 | 494 | 101 | 81.2
C[C@]12CC(=O)[C@H]3[C@@H](CC\C4=C\C(=O)\C=C/[C@]34C)[C@@H]1CC[C@]2(O)C(=O)CO (top concentration 23.0415 µM) | 566 | 604 | 92.6 | 103
COC1=CC=C2[N](CCCN(C)C)C=C(C2=C1)C/3=C(/C(=O)NC3=O)C4=C[NH]C5=C4C=CC=C5 [G?-6983] (top concentration 46.0829 µM) | 354 | 496 | 67.4 | 60.8
Cc1ccc(NC(=O)C2(c3ccc4c(c3)OC(F)(F)O4)CC2)nc1-c1cccc(C(=O)O)c1 [Lumacaftor] (top concentration 46.0829 µM) | 396 | 211 | 37.7 | 25.3
Oc1ccc(/C=C/c2cc(O)cc(O)c2)cc1 [Resveratrol] (top concentration 46.0829 µM) | 544 | 583 | 81.7 | 101
C[S+](=O)([O-])N(Cc1ccco1)CC(O)Cn1c2ccccc2c2ccccc21 (stereo not given) [KL001] (top concentration 46.0829 µM) | 490 | 460 | 68.1 | 51.2
CCN(CC)CCOc1ccc(Cc2ccccc2)cc1 [Tesmilifene hydrochloride] (top concentration 46.0829 µM) | 584 | 330 | 63.8 | 40.1
NC(=O)c1cccc2nc(-c3ccc([C@H]4CCCN4)cc3F)[nH]c12 (top concentration 46.0829 µM) | 507 | 477 | 62.3 | 91.3
C[C@H]([C@H](O)CCC(C)(C)O)[C@H]1CC[C@@]2(O)C/3=C/C(=O)[C@@H]4C[C@@H](O)[C@@H](O)C[C@]4(C)[C@H]3CC[C@]12C [Ecdysone] (top concentration 46.0829 µM) | 582 | 561 | 142 | 112
O=C1NCCc2[nH]c(-c3ccncc3)cc21 (top concentration 46.0829 µM) | 472 | 450 | 79.8 | 51
CCCNC(=O)Nc1ccc(Oc2ncnc3cc(OC)c(OC)cc23)cc1Cl [KRN-633] (top concentration 46.0829 µM) | 454 | 441 | 47 | 28.9
O=C(O)c1nn(Cc2ccc(Cl)cc2Cl)c2ccccc12 [Lonidamine] (top concentration 46.0829 µM) | 443 | 461 | 87.9 | 82.3
C[C@@H](Oc1cc(-n2cnc3ccc(CN4CCN(C)CC4)cc32)sc1C(N)=O)c1ccccc1C(F)(F)F (top concentration 46.0829 µM) | 287 | 374 | 6.24 | 56.5
COc1cc2ncn(-c3cc(OCc4ccccc4C(F)(F)F)c(C(N)=O)s3)c2cc1OC (top concentration 46.0829 µM) | 455 | 488 | 56.5 | 45.9
COC(=O)C/1=C(C)/N/C(=C(\C1C2=CC(=CC=C2)[N+]([O-])=O)C(=O)OCCCN3CCC(CC3)(C4=CC=CC=C4)C5=CC=CC=C5)C (stereo not given) [Niguldipine] (top concentration 46.0829 µM) | 621 | 450 | 118 | 84.7
CN1CCCN=C1/C=C/c1cccs1.O=C(O)c1cc2ccccc2c(Cc2c(O)c(C(=O)O)cc3ccccc23)c1O [Pyrantel pamoate] (top concentration 46.0829 µM) | 575 | 495 | 98.9 | 85.2
CCCCN1CCC(CNC(=O)c2c3n(c4ccccc24)CCCO3)CC1 [Piboserod hydrochloride] (top concentration 46.0829 µM) | 400 | 424 | 20.6 | 20.7
OC1=CC(=C(C=C1)\C2=C(O)\C(=O)C3=C(O2)C=C(O)C=C3O)O [Morin hydrate] (top concentration 46.0829 µM) | 530 | 516 | 132 | 105
Cc1n[nH]c2ccc(-c3cncc(OC[C@@H](N)Cc4c[nH]c5ccccc45)c3)cc12 (top concentration 46.0829 µM) | 399 | 392 | 8.18 | 29
CCC[C@H](N[C@@H](C)C(=O)N1[C@H](C(=O)O)C[C@@H]2CCCC[C@@H]21)C(=O)OCC [Perindopril] (top concentration 46.0829 µM) | 542 | 598 | 98.5 | 115
